The term logP denotes a log measure of how a compound divides between an organic and an aqueous phase. Low values mean a more hydrophilic compound, high ones a more lipophilic compound. For the compound `CNc1cccc2c1C(=O)c1ccccc1C2=O`, the logP was 4.1. Compound `O=[N+]([O-])c1cc(S(=O)(=O)Nc2ccccc2)ccc1Nc1ccccc1` came in with a lipophilicity (logP) of 4.6. As to `CCN(CCO)c1ccc(N=Nc2ccc([N+](=O)[O-])cc2)cc1`, the logP is 4.3. The same measure for `C=CCN(CCC#N)c1cc(NC(C)=O)c(N=Nc2c(Br)cc([N+](=O)[O-])cc2[N+](=O)[O-])cc1OC`: 5.4; for `O=C1c2ccccc2C(=O)C1c1nc2ccccc2cc1O`: 5; for `Cc1cc(N(CCO)CCO)ccc1N=Nc1ccc([N+](=O)[O-])cc1Cl`: 4.3. In the case of `COc1cc(N)c2c(c1N)C(=O)c1ccccc1C2=O`, the logP was found to be 3.5. Consider `CCn1c(O)c(N=Nc2ccc(Cl)cc2[N+](=O)[O-])c(C)c(C#N)c1=O`, for which the lipophilicity (logP) came out at 3.4. As for `Nc1ccc(N)c2c1C(=O)c1ccccc1C2=O`, the log partition coefficient (logP) came out at 3. Compound `O=C1c2ccccc2C(=O)C1c1ccc2ccccc2n1` registered a log partition coefficient (logP) of 4.1. In the case of `COc1cc(N=Nc2c(Br)cc([N+](=O)[O-])cc2[N+](=O)[O-])c(NC(C)=O)cc1N(CCOC(C)=O)CCOC(C)=O`, the lipophilicity (logP) is 4.8. Regarding `N#CCCN(CCO)c1ccc(N=Nc2ccc([N+](=O)[O-])cc2Cl)cc1`, the log partition coefficient (logP) stood at 4.

(Values after the OPERA property sets (Mansouri et al. 2018).)
